Assays:
Assay type in all cases: cell-based
[1] = tested on: Ba/F3-FGFR4-transfected cells; experiment: Ba/F3-FGFR4 cellular proliferation assay; details: 24 h, read-out: BAF3-FGFR 4 pIC50 (converted)
[2] = tested on: Ba/F3-FGFR1-transfected cells; experiment: Ba/F3-FGFR1 (minus IL3 or plus IL3) cellular proliferation assay; details: 24 h, read-out: BAF3-FGFR1 (MIN IL3) pIC50 (converted)
[3] = tested on: Ba/F3-FGFR3-transfected cells; experiment: Ba/F3-FGFR3 (minus IL3 or plus IL3) cellular proliferation assay; details: 24 h, read-out: BAF3-FGFR3 (MIN IL3) pIC50 (converted)
[4] = tested on: Ba/F3-KDR-transfected cells; experiment: Ba/F3-KDR (minus IL3 or plus IL3) cellular proliferation assay; details: 24 h, read-out: BAF3-KDR (MIN IL3) pIC50 (converted)

## COc1cccc(C(=O)c2cc3cc(-c4cnn(C)c4)cnc3cn2)c1 [Compound 26]
[1]
  IC50: > 10 µM
[2]
  IC50: > 10 µM
[3]
  IC50: > 10 µM

## COc1cc(OC)cc(C(OCCO)c2ccc3ncc(-c4cnn(C)c4)cc3n2)c1 (stereo not shown) [Compound 11]
[4]
  IC50: > 10 µM

## CCOC(=O)CC(c1cc(OC)cc(OC)c1)c1cc2cc(-c3cnn(C)c3)cnc2cn1 (stereo not shown) [Compound 24]
[1]
  IC50: > 10 µM
[2]
  IC50: > 10 µM
[4]
  IC50: > 10 µM
[3]
  IC50: > 10 µM

## COc1cc(OC)cc(C(=O)c2cc3cc(-c4cnn(C)c4)cnc3cn2)c1 [Compound 23]
[1]
  IC50: > 10 µM
[2]
  IC50: > 10 µM
[4]
  IC50: > 10 µM

## COC(=O)CC(c1cc(OC)cc(OC)c1)c1ccc2ncc(-c3cnn(C)c3)nc2n1 (stereo not shown) [Compound 4]
[1]
  IC50: > 10 µM
[4]
  IC50: > 10 µM

## COc1cc(OC)cc(C(CCO)c2ccc3ncc(-c4cnn(C)c4)nc3n2)c1 (stereo not shown) [Compound 14]
[4]
  IC50: > 10 µM

## COc1cc(OC)cc(C(O)c2ccc3ncc(-c4cnn(C)c4)cc3n2)c1 (stereo not shown) [Compound 10]
[4]
  IC50: > 10 µM

## COc1cc(OC)cc(C(=O)c2ccc3ncc(N4CCOCC4)cc3n2)c1 [Compound 20]
[1]
  IC50: > 10 µM
[2]
  IC50: > 10 µM
[4]
  IC50: > 10 µM

## COc1cc(OC)cc(C(=O)c2ccc3ncc(-c4cnn(C)c4)cc3n2)c1 [Compound 8]
[1]
  IC50: > 10 µM
[4]
  IC50: > 10 µM

## COc1cccc(C(O)c2ccc3ncc(-c4cnn(C)c4)cc3n2)c1 (stereo not shown) [Compound 17]
[2]
  IC50: > 10 µM
[4]
  IC50: > 10 µM

## COc1cccc(C(=O)c2ccc3ncc(-c4cnn(C)c4)cc3n2)c1 [Compound 16]
[2]
  IC50: > 10 µM
[4]
  IC50: > 10 µM

## COc1cc(OC)cc(C(Cc2nccn2S(=O)(=O)N(C)C)c2ccc3ncc(-c4cnn(C)c4)nc3n2)c1 (stereo not shown) [Compound 15]
[4]
  IC50: > 10 µM

## COc1cc(OC)cc(C(C)(O)c2ccc3ncc(-c4cnn(C)c4)nc3n2)c1 (stereo not shown) [Compound 3]
[2]
  IC50: > 10 µM
[4]
  IC50: > 10 µM

## CCOC(=O)CC(c1cc(OC)cc(OC)c1)c1ccc2ncc(N3CCOCC3)cc2n1 (stereo not shown) [Compound 21]
[1]
  IC50: > 10 µM
[2]
  IC50: > 10 µM
[4]
  IC50: > 10 µM

## COc1cc(OC)cc(C(O)c2ccc3ncc(-c4cnn(C)c4)nc3n2)c1 (stereo not shown) [Compound 2]
[4]
  IC50: > 10 µM
